Measured values taken from patent US9388175B2, “2-aniline-4-aryl substituted thiazole derivatives” (Janssen Pharmaceutica N.V., priority 2005, dated 2016).

How the values were obtained:
[1] = molecular target: T1, hα7-wt nAChR stably expressed in the GH4C1 cell line (Homo sapiens, UniProt P36544); assay: Ca2+ flux imaging (FLIPR) of PAM activity with choline as agonist; assay type: cell-based; settings: efficacy relative to 100 μM choline alone (defined as 1); peak fluorescence, fluo-4AM; compounds tested 0.1 μM to 30 μM, efficacy criterion at 10 μM
T1 construct: expressed in transfected cells
T1 sequence (P36544 23-502): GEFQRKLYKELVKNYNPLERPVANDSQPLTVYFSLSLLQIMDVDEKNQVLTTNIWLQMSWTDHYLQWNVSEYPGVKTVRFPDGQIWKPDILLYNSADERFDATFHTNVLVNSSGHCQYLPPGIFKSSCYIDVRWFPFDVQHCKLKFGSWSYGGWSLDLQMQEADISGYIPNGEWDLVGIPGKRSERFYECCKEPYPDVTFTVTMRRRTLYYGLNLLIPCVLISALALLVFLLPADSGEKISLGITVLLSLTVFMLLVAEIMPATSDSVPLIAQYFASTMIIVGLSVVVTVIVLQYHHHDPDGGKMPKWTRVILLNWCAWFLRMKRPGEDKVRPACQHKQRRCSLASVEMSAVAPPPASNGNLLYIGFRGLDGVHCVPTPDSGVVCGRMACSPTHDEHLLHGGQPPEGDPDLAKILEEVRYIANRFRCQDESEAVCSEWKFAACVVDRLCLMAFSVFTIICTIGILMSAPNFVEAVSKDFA

| SMILES | melting point [°C] | Activity Range [1] |
| --- | --- | --- |
| Cc1cc(Nc2nc(-c3ccc(Cl)nc3)cs2)ccc1F [Compound 2] | 175 | D (D denotes an activity range from 3.0 till 4.5) |
| CS(=O)(=O)NCc1sc(Nc2cccc(C(F)(F)F)c2)nc1-c1cccnc1 [Compound 109] | 213.6 to 219.8 | E (E denotes an efficacy from at least 4.5) |
| NC(=O)Cc1sc(Nc2cccc(C(F)(F)F)c2)nc1-c1ccccc1 [Compound 1, 2-[4-Phenyl-2-(3-trifluoromethyl-phenylamino)-thiazol-5-yl]-acetamide] | 186 to 187 | C (C denotes an activity range from 2.0 till 3.0) |

Second part, led by results:

| melting point [°C] | SMILES | Activity Range [1] |
| --- | --- | --- |
| 205.3 to 205.8 | COCc1sc(Nc2cc(Cl)ccc2Cl)nc1-c1ccncc1 [Compound 136] | E (E denotes an efficacy from at least 4.5) |
| 172.8 to 175 | OCc1sc(Nc2cc(Cl)ccc2Cl)nc1-c1ccccc1 [int. 23] | D (D denotes an activity range from 3.0 till 4.5) |
| 126.2 to 126.8 | COc1ccc(Nc2nc(-c3ccncc3)c(CO)s2)cc1 [Compound 122, 2-[(4-methoxyphenyl)amino]-4-(4-pyridinyl)-5-thiazolemethanol] | E (E denotes an efficacy from at least 4.5) |
